Legend:
Test in all cases: Post-emergence herbicidal activity test (stem and leaf spray, pot culture)
Assay type in all cases: in vivo
Details in all cases: 3 weeks after spraying
[1] = tested on: Abutilon theophrasti
Experimental: (§1) The weeds were cultivated in a 180 mm×140 mm plastic nutrient pot by a pot-culture method, placed in an enamel tray, and the plastic nutrient pots were filled with surface soil (⅘ of a depth) collected from a farmland and air-dried and sieved, and a soil humidity was controlled at 20% in the initial stage. Weed seeds with plump and uniform grains were selected, soaked in warm water at 25° C. for 6 h, and germinated in a biochemical incubator (dark) at 28° C. The freshly exposed weed seeds were evenly placed on the soil surface, and then covered with 0.5 cm to 1 cm of soil according to the size of the seeds. The weeds are cultivated in a controlled sunlight greenhouse at 20° C. to 30° C., under natural light, and a relative humidity of 57% to 72%. The soil was loam, including 1.63% of organic matters, with a pH value of 7, 84.3 mg/kg of alkaline nitrogen, 38.5 mg/kg of available phosphorus, and 82.1 mg/kg of available potassium.
(§2) Each treatment was repeated 2 times, each treatment included 12 pots, and 20 weed seeds were sown in each pot. Pesticide was applied in the test for 1 time in total. When the weeds grew to 1.5- to 2-leaf stage, thinning was conducted, with 10 weeds in each pot, and 30 weeds were kept in each treatment.
(§3) The cultivated weeds were placed on trays with an area of 0.1 m^2, and stems and leaves were sprayed with a sprayer. After applying a pesticide, the pesticide applied weeds were moved into a greenhouse for routine cultivation.
(§4) 2 weeks after sowing, the test plants were treated at the 2- to 3-leaf stage: the compounds of the present disclosure for testing were dissolved in acetone separately, and added with Tween 80, an emulsifiable oil of 1.5 liters/ha methyl oleate was added as a synergist, and an obtained mixture was diluted with certain water to a certain concentration solution. The solution was sprayed onto the plants using a spray tower. After spraying, the weeds were cultivated in the greenhouse for 3 weeks, and the experimental effects on the weeds were counted. The effective concentrations of the compounds were 10 g/mu, 5 g/mu, and 2.5 g/mu, the experiment was repeated three times, and an average result was taken.
(§5) The activity level criteria for plant destruction (i.e. growth control rate) are as follows: • Grade 5: the growth control rate is greater than or equal to 85%; • Grade 4: the growth control rate is greater than or equal to 60% and less than 85%; • Grade 3: the growth control rate is greater than or equal to 40% and less than 60%; • Grade 2: the growth control rate is greater than or equal to 20% and less than 40%; • Grade 1: the growth control rate is greater than or equal to 5% and less than 20%; and • Grade 0: the growth control rate is less than 5%.
(§6) The growth control rate is a fresh weight control rate.

[2] = tested on: Amaranthus retroflexus
Experimental: as §1, §2, §3, §4, §5, §6

[3] = tested on: Echinochloa crusgalli
Experimental: as §1, §2, §3, §4, §5, §6

[4] = tested on: Portulaca oleracea
Experimental: as §1, §2, §3, §4, §5, §6

[5] = tested on: Setaria viridis
Experimental: as §1, §2, §3, §4, §5, §6

[6] = tested on: Trifoliumre pensL.
Experimental: (1) Post-Emergence Stem and Leaf Spray Treatment: The weeds were cultivated in a 180 mm×140 mm plastic nutrient pot by a pot-culture method, placed in an enamel tray, and the plastic nutrient pots were filled with surface soil (⅘ of a depth) collected from a farmland and air-dried and sieved, and a soil humidity was controlled at 20% in the initial stage. Weed seeds with plump and uniform grains were selected, soaked in warm water at 25° C. for 6 h, and germinated in a biochemical incubator (dark) at 28° C. The freshly exposed weed seeds were evenly placed on the soil surface, and then covered with 0.5 cm to 1 cm of soil according to the size of the seeds. The weeds are cultivated in a controlled sunlight greenhouse at 20° C. to 30° C., under natural light, and a relative humidity of 57% to 72%. The soil was loam, including 1.63% of organic matters, with a pH value of 7, 84.3 mg/kg of alkaline nitrogen, 38.5 mg/kg of available phosphorus, and 82.1 mg/kg of available potassium. Each treatment was repeated 2 times, each treatment included 12 pots, and 20 weed seeds were sown in each pot. Pesticide was applied in the test for 1 time in total. When the weeds grew to 1.5- to 2-leaf stage, thinning was conducted, with 10 weeds in each pot, and 30 weeds were kept in each treatment. The cultivated weeds were placed on trays with an area of 0.1 m^2, and stems and leaves were sprayed with a sprayer. After applying a pesticide, the pesticide applied weeds were moved into a greenhouse for routine cultivation. 2 weeks after sowing, the test plants were treated at the 2- to 3-leaf stage: the compounds of the present disclosure for testing were dissolved in acetone separately, and added with Tween 80, an emulsifiable oil of 1.5 liters/ha methyl oleate was added as a synergist, and an obtained mixture was diluted with certain water to a certain concentration solution. The solution was sprayed onto the plants using a spray tower. After spraying, the weeds were cultivated in the greenhouse for 3 weeks, and the experimental effects on the weeds were counted. The effective concentrations of the compounds were 10 g/mu, 5 g/mu, and 2.5 g/mu, the experiment was repeated three times, and an average result was taken.

Row | SMILES | Post-emergence herbicidal activity, A. theophrasti (grade) ([1]; dosage 2.5 g/mu) | Post-emergence herbicidal activity, A. theophrasti (grade) ([1]; dosage 5 g/mu) | Post-emergence herbicidal activity, A. theophrasti (grade) ([1]; dosage 10 g/mu) | Post-emergence herbicidal activity, A. retroflexus (grade) ([2]; dosage 2.5 g/mu) | Post-emergence herbicidal activity, A. retroflexus (grade) ([2]; dosage 5 g/mu) | Post-emergence herbicidal activity, A. retroflexus (grade) ([2]; dosage 10 g/mu) | Post-emergence herbicidal activity, E. crusgalli (grade) ([3]; dosage 2.5 g/mu) | Post-emergence herbicidal activity, E. crusgalli (grade) ([3]; dosage 5 g/mu) | Post-emergence herbicidal activity, E. crusgalli (grade) ([3]; dosage 10 g/mu) | Post-emergence herbicidal activity, P. oleracea (grade) ([4]; dosage 2.5 g/mu) | Post-emergence herbicidal activity, P. oleracea (grade) ([4]; dosage 5 g/mu) | Post-emergence herbicidal activity, P. oleracea (grade) ([4]; dosage 10 g/mu) | Post-emergence herbicidal activity, S. viridis (grade) ([5]; dosage 2.5 g/mu) | Post-emergence herbicidal activity, S. viridis (grade) ([5]; dosage 5 g/mu) | Post-emergence herbicidal activity, S. viridis (grade) ([5]; dosage 10 g/mu) | Post-emergence herbicidal activity, Trifoliumre pensL. (grade) ([6]; dosage 2.5 g/mu) | Post-emergence herbicidal activity, Trifoliumre pensL. (grade) ([6]; dosage 5 g/mu) | Post-emergence herbicidal activity, Trifoliumre pensL. (grade) ([6]; dosage 10 g/mu)
1 | O=C1C2=C(CCCC2)C(=O)N1c1cc(OCc2nc(-c3ccc(Cl)cc3)no2)c(Cl)cc1F [Compound A5] | 5 (Grade 5: the growth control rate is greater than or equal to 85%) | 5 (Grade 5: the growth control rate is greater than or equal to 85%) | 5 (Grade 5: the growth control rate is greater than or equal to 85%) | 5 (Grade 5: the growth control rate is greater than or equal to 85%) | 5 (Grade 5: the growth control rate is greater than or equal to 85%) | 5 (Grade 5: the growth control rate is greater than or equal to 85%) | 1 (Grade 1: the growth control rate is greater than or equal to 5% and less than 20%) | 2 (Grade 2: the growth control rate is greater than or equal to 20% and less than 40%) | 3 (Grade 3: the growth control rate is greater than or equal to 40% and less than 60%) | 5 (Grade 5: the growth control rate is greater than or equal to 85%) | 5 (Grade 5: the growth control rate is greater than or equal to 85%) | 5 (Grade 5: the growth control rate is greater than or equal to 85%) | 2 (Grade 2: the growth control rate is greater than or equal to 20% and less than 40%) | 3 (Grade 3: the growth control rate is greater than or equal to 40% and less than 60%) | 4 (Grade 4: the growth control rate is greater than or equal to 60% and less than 85%) | 5 (Grade 5: the growth control rate is greater than or equal to 85%) | 5 (Grade 5: the growth control rate is greater than or equal to 85%) | 5 (Grade 5: the growth control rate is greater than or equal to 85%)
2 | O=C1C2=C(CCCC2)C(=O)N1c1cc(OCc2nc(-c3ccc(F)cc3F)no2)c(Cl)cc1F [Compound A6] | 5 (Grade 5: the growth control rate is greater than or equal to 85%) | 5 (Grade 5: the growth control rate is greater than or equal to 85%) | 5 (Grade 5: the growth control rate is greater than or equal to 85%) | 5 (Grade 5: the growth control rate is greater than or equal to 85%) | 5 (Grade 5: the growth control rate is greater than or equal to 85%) | 5 (Grade 5: the growth control rate is greater than or equal to 85%) | 1 (Grade 1: the growth control rate is greater than or equal to 5% and less than 20%) | 2 (Grade 2: the growth control rate is greater than or equal to 20% and less than 40%) | 3 (Grade 3: the growth control rate is greater than or equal to 40% and less than 60%) | 4 (Grade 4: the growth control rate is greater than or equal to 60% and less than 85%) | 5 (Grade 5: the growth control rate is greater than or equal to 85%) | 5 (Grade 5: the growth control rate is greater than or equal to 85%) | 2 (Grade 2: the growth control rate is greater than or equal to 20% and less than 40%) | 3 (Grade 3: the growth control rate is greater than or equal to 40% and less than 60%) | 4 (Grade 4: the growth control rate is greater than or equal to 60% and less than 85%) | 4 (Grade 4: the growth control rate is greater than or equal to 60% and less than 85%) | 5 (Grade 5: the growth control rate is greater than or equal to 85%) | 5 (Grade 5: the growth control rate is greater than or equal to 85%)
3 | O=C1C2=C(CCCC2)C(=O)N1c1cc(OCc2nc(-c3ccc(Cl)cc3F)no2)c(Cl)cc1F [Compound A7] | 5 (Grade 5: the growth control rate is greater than or equal to 85%) | 5 (Grade 5: the growth control rate is greater than or equal to 85%) | 5 (Grade 5: the growth control rate is greater than or equal to 85%) | 5 (Grade 5: the growth control rate is greater than or equal to 85%) | 5 (Grade 5: the growth control rate is greater than or equal to 85%) | 5 (Grade 5: the growth control rate is greater than or equal to 85%) | 1 (Grade 1: the growth control rate is greater than or equal to 5% and less than 20%) | 2 (Grade 2: the growth control rate is greater than or equal to 20% and less than 40%) | 3 (Grade 3: the growth control rate is greater than or equal to 40% and less than 60%) | 4 (Grade 4: the growth control rate is greater than or equal to 60% and less than 85%) | 5 (Grade 5: the growth control rate is greater than or equal to 85%) | 5 (Grade 5: the growth control rate is greater than or equal to 85%) | 2 (Grade 2: the growth control rate is greater than or equal to 20% and less than 40%) | 3 (Grade 3: the growth control rate is greater than or equal to 40% and less than 60%) | 4 (Grade 4: the growth control rate is greater than or equal to 60% and less than 85%) | 4 (Grade 4: the growth control rate is greater than or equal to 60% and less than 85%) | 5 (Grade 5: the growth control rate is greater than or equal to 85%) | 5 (Grade 5: the growth control rate is greater than or equal to 85%)

Reference: US20240300932A1, “N-PHENYLIMINE DERIVATIVE AND PREPARATION METHOD AND USE THEREOF” (Guizhou University, priority 2023, published 2024)
